Experimental data published in patent publication US20050169863A1, “2-Thioacetamide compositions for stimulating the growth of keratin fibers and/or for reducing loss thereof” (L'OREAL, priority 2003, published 2005).

Experiments:
PGF synthase (PGFS) = biological target: T1, PGF synthase (PGFS) (Homo sapiens, UniProt P42330); experiment: Test on PGF synthase (spectrophotometric, 340 nm, 9,10-phenanthrenequinone/β-NADPH); format: biochemical; conditions: IC50fs; 37° C., pH 6.5 Tris buffer, 20 μM 9,10-phenanthrenequinone, 100 μM β-NADPH
T1 construct: made in house
T1 sequence (P42330 1-323): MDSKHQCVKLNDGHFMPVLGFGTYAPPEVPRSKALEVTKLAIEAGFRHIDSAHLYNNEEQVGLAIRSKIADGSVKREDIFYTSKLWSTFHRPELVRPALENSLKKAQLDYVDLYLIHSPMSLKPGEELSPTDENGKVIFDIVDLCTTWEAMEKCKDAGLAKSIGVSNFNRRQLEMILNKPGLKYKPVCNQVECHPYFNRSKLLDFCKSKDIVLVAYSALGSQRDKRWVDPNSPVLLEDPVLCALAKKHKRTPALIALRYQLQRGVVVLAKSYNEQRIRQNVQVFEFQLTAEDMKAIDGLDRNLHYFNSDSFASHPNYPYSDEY
Description: The enzyme PGFS is obtained as described in document FR-A-02/05067, at a concentration of 0.5 mg/mL, as a suspension in a suitable medium, and blocked at −80° C. For the purposes of the test, this suspension is thawed and stored in ice.
In parallel, a 100 mM, pH 6.5 Tris buffer containing 20 μM of 9,10-phenanthrenequinone* (P2896, Sigma-Aldrich, L'isle D'Abeau Chesne, BP 701, 38297, Saint Quentin Fallavier) and 100 μM of β-NADPH (N1630, Sigma-Aldrich, L'isle D'Abeau Chesne, BP 701, 38297, Saint Quentin Fallavier) is prepared in a brown flask (protected from light).
*A stock solution with a titre of 1 mM is prepared in absolute ethanol and brought to 40° C.; the flask is placed in an ultrasound cuvette to facilitate the dissolution of the product.
0.950 mL of this buffer (brought to 37° C. beforehand) is introduced into the cuvette of a spectrophotometer (Perkin-Elmer, Lambda 2) thermostatically maintained at 37° C., the measuring wavelength of which is set at 340 nm. 0.05 mL of enzymatic suspension at 37° C. is introduced into the cuvette concomitantly with the recording (corresponding to a reduction in the optical density at 340 nm). The maximum reaction rate is recorded. […]

15-PGDH = biological target: T2, 15-PGDH (Homo sapiens, UniProt P15428); experiment: Test on 15-PGDH (spectrophotometric, 340 nm, PGE2/β-NAD); format: biochemical; conditions: for Inhibition of 15-PGDH % inhibition at 50 μm: compound at 50 μm, pH 7.4
T2 construct: made in house
T2 sequence (P15428 1-266): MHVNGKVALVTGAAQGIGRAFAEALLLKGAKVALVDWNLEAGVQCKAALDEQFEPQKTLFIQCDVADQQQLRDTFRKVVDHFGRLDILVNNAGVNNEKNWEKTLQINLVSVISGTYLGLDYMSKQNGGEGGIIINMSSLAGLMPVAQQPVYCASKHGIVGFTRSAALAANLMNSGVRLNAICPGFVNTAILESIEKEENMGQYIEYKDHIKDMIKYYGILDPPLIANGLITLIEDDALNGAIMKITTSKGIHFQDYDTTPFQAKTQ
Description: The enzyme 15-PGDH is obtained as described in patent application FR 02/05067 filed in the name of L'Oréal, as a suspension in a medium adjusted to a concentration of 0.3 mg/mL and then blocked at −80° C. For the purposes of the test, this suspension is thawed and stored in ice.
In parallel, a 100 mM, pH 7.4 Tris buffer containing 0.1 mM of dithiothreitol (D5545, Sigma-Aldrich, L'isle D'Abeau Chesne, BP 701, 38297, Saint Quentin Fallavier), 1.5 mM of β-NAD (N6522, Sigma-Aldrich, L'isle D'Abeau Chesne, BP 701, 38297, Saint Quentin Fallavier), and 50 μM of prostaglandin E2 (P4172, Sigma-Aldrich, L'isle D'Abeau Chesne, BP 701, 38297, Saint Quentin Fallavier) is prepared.
0.965 ml of this buffer (brought to 37° C. beforehand) is introduced into the cuvette of a spectrophotometer (Perkin-Elmer, Lambda 2) thermostatically maintained at 37° C., the measuring wavelength of which is set at 340 nm. 0.035 mL of enzymatic suspension at 37° C. is introduced into the cuvette concomitantly with the recording (corresponding to an increase in the optical density at 340 nm). The maximum reaction rate is recorded.
The test values (containing the compounds (I)) are compared with the control value (without compound (I)); the results indicated represent the concentration at which the compound of formula (I) reduces the anzymatic activity of 15-PGDH by 50%, namely IC50dh.

SMILES | IC50 (PGF synthase (PGFS)) | IC50 (15-PGDH; IC50dh, 37° C., pH 7.4 Tris buffer, 50 μM prostaglandin E2, 1.5 mM β-NAD, read-out: Inhibition of 15-PGDH IC50) | Inhibition of 15-PGDH % inhibition at 50 μm (15-PGDH; 37° C.) | IC50fs/IC50dh ratio (15-PGDH; selectivity: PGF synthase IC50 over 15-PGDH IC50)
O=C(CSc1nc2ccccc2s1)NC1CCCC1 [Compound 1] | ≥ 50 µM | 5 µM | 89% | greater than 10
CC(=O)c1ccc(C#N)c(SCC(=O)Nc2cc(Cl)cc(Cl)c2)n1 [Compound 2] | – | – | 30% | –
O=C(CSc1nnc2sc3ccccc3n12)Nc1ccc(Br)cc1 [Compound 3] | – | – | 26% | –
